Where a name gives a salt, the structure may show the parent alone. Read-outs that look alike come from different tables or passages of the source.

Consider 38 molecules from patent publication US4160768A, “Anti-inflammatory 3-benzofuranyl imidazothiazole” (Diamond Shamrock Corporation, priority 1978, dated 1979).

Assay [1] in a line: carrageenin-induced edema in the hind paw of the rat (modified Winter et al.). In kind it is in vivo. The protocol: (§1) The procedure used for measuring the inhibition of carrageenin-induced edema is a slight modification of the method of Winter et al., Proc. Soc. Explt. Biol. Med. 111: 544 (1962). The device used for measurement of the paw volume is an adaptation of the water displacement procedure described by Adamkiewicz et al., Can. J. Biochem. Physiol. 33: 332 (1955). The above compounds were studied for their effectiveness in preventing the edema caused by the intraplantar injection of 0.05 ml of a sterile 1.0% solution of carrageenin. Compounds were administered orally, except when indicated as intraperitoneally (i.p.), one hour prior to the injection of the carrageenin into the left hind paw of rats. At peak swelling time (3 hours) the volume of edema was calculated by differential paw volumes.
Table I (in which Ph=phenyl) sets forth results obtained at the indicated dosages with compounds (or their salts) of the formula [drawing 8]
Following the procedure set forth in Example 4, hydrated compounds according to the following formula were evaluated for antiinflammatory effect with the results shown in Table II: [drawing 9]
Certain of the compounds of the invention were further tested to determine their ED50 values. […] Typical results of these tests appear in Table III.
On the technique in general: In the carrageenan paw model, swelling and tenderness develop within hours.

Assay [2] is described as follows: adrenalectomized assay (carrageenin edema in adrenalectomized rats). In kind it is in vivo, Adrenalectomized Sprague Dawley Male Rats. The note with it: Rattus norvegicus, po, 3 h, read-out: % Reduction (adrenalectomized rats). The procedure: as §1
Next, certain of the compounds were subjected to a secondary screen designated the adrenalectomized assay. In this series of tests, the method used was identical to that described above, except that the animals used were adrenalectomized several days prior to assay. Since the results in the nonadrenalectomized animals were similar to those obtained in the adrenalectromized animals, it can be inferred that the antiinflammatory activity of the test compounds was not caused by the release of endogeneous adrenocortical steriods.

Assay [3] is described as follows: adjuvant-induced arthritis test (Newbould). In kind it is in vivo, rat. The text has this:
Selected compounds were further subjected to advanced evaluations. Specifically, in view of the interesting activity of compounds 1 and 9, those compounds were further subjected to the adjuvant-induced arthritis test. This test requires one month (from day 0 to day 31). In the first seventeen days (0-17), the disease is in a developing stage, while for the remainder of the month (18-31) the disease is fully developed.
The method is essentially that of Newbould, Brit. J. Pharmacol. 21: 127, 1963. The test compounds were studied in the developing arthritis state and in the established arthritic state. Separate groups of twelve rats were administered the compounds orally using methylcellulose as the vehicle. In the study on the developing disease, administration of the test compounds begins on day 1 and on day 2 each animal is injected with 0.05 ml/kg of a 0.5% suspension of heat-killed Mycobacterium tuberculosis into the planter surface of the left hind paw. Foot volumes were measured by a water displacement device on the day of administration of the Mycobacterium and again on days 3, 10 and 17. The test compounds were administered once daily. Body weights were recorded daily and the animals were examined for the spread of the inflammation and the degree of secondary lesions. For study in the established disease, another group of rats are injected with the Mycobacterium and foot volumes are measured. After twenty days volumes are again measured and administration of the test compounds begins and continues for eleven days. Foot volume measurements are repeated on day 27 and day 31. The extent of the spread of the inflammation and the degree of lesions are recorded daily as are the body weights. The effect of the test compounds is measured by the percentage reduction in left hind paw volumes as compared to the hind paw volumes of the control groups.

[4] abbreviates: Rattus norvegicus, po, 3 h, Table I, 50 mg/kg, oral, 1 h before carrageenin, 3 h, read-out: Reduction % (carrageenin edema).
The mark [5] stands for this setting: Rattus norvegicus, po, 3 h, Table I, 25 mg/kg, oral, 1 h before carrageenin, 3 h, read-out: Reduction % (carrageenin edema).
[6] abbreviates: Rattus norvegicus, po, 3 h, Table I, 40 mg/kg, oral, 1 h before carrageenin, 3 h, read-out: Reduction % (carrageenin edema).

As usually defined, the ED50 is the dose that gives a 50% effect, or the effect in half of the subjects. Higher therefore signals weaker potency. In the case of `C1=C(c2ccccc2)N2CCN=C2S1` [Compound 1], the inhibition in vivo at 50 mg/kg was found to be 47% in assay [1] (setting [4]) and 32% in assay [2]. Further, it took a dose of 25 mg/kg to reach the 50% effect level in assay [1] (Rattus norvegicus, po, 3 h, dose which reduced edema formation by about 25% or more vs mean control in 50% of the animals) (ED50). For the same molecule, the “% reduction in swelling, hind paws” value is 18% in assay [3] (20 mg/kg, day 3, developing (prophylactic)); 13% in assay [3] (20 mg/kg, day 10, developing (prophylactic)); 18% in assay [3] (20 mg/kg, day 17, developing (prophylactic)); 5% in assay [3] (20 mg/kg, day 20, developed (therapeutic)); 0% in assay [3] (20 mg/kg, day 27, developed (therapeutic)); 0% in assay [3] (20 mg/kg, day 31, developed (therapeutic)). Moreover, the “% reduction in swelling, hind paws” value in assay [3] (40 mg/kg, day 3, developing (prophylactic)) is on record as 10%; in assay [3] (40 mg/kg, day 10, developing (prophylactic)), 21%; in assay [3] (40 mg/kg, day 17, developing (prophylactic)), 43%; in assay [3] (40 mg/kg, day 20, developed (therapeutic)) it was 4%; in assay [3] (40 mg/kg, day 27, developed (therapeutic)), 14%; in assay [3] (40 mg/kg, day 31, developed (therapeutic)) it was 8%.
On to `Cc1ccc(C2=CSC3=NCCN23)cc1C` [Compound 2], for which the inhibition in vivo at 50 mg/kg in assay [1] (setting [4]) amounted to 27%.
Turning to `CSC1=C(C(C)(C)C)N2CCN=C2S1` [Compound 3, 2-methylthio-3-t-butyl-5,6-dihydro-4H-imidazo-[2,1-b] thiazole hydrobromide], the inhibition in vivo at 50 mg/kg in assay [1] (setting [4]) was found to be 26%.
For the molecule `CCC1=C(c2ccccc2)N2CCN=C2S1` [Compound 4], the inhibition in vivo at 25 mg/kg in assay [1] (setting [5]) worked out at 41%; in assay [2], 31%.
Turning to `CCC1=C(c2ccc(Cl)cc2)N2CCN=C2S1` [Compound 5], the inhibition in vivo at 25 mg/kg worked out at 33% in assay [1] (setting [5]) and 15% in assay [2].
The corresponding values for `CC1=C(c2ccc(Cl)cc2)N2CCN=C2S1` [Compound 6] are 45% and 19%.
Take `Brc1ccc(C2=CSC3=NCCN23)cc1` [Compound 7]: the inhibition in vivo at 50 mg/kg in assay [1] (setting [4]) amounted to 70%.
Take `CC(C)(C)C1=CSC2=NCCN12` [Compound 8]: the inhibition in vivo at 50 mg/kg in assay [1] (setting [4]) came to 56%. Also, the inhibition in vivo at 25 mg/kg in assay [2] is 23%.
`C1=C(c2cccc3ccccc23)N2CCN=C2S1` [Compound 10]: the inhibition in vivo at 50 mg/kg in assay [1] (setting [4]) was 58%; in assay [2] it was 18%.
In the case of `CC(C)(C)C1=CSC2=NCCN12` [Compound 11], in assay [1] (Table I, 50 mg/kg, oral, 1 h before carrageenin, 3 h, 50 mg/kg), the “Reduction (%) (carrageenin edema)” value is on record as 48%.
With `CC1CN2C(C(C)(C)C)=CSC2=N1` (stereo not drawn) [Compound 12], the inhibition in vivo at 50 mg/kg in assay [1] (setting [4]) is 54%.
With `CC1=CSC2=NC(C)CN12` (stereo not drawn) [Compound 13], the inhibition in vivo at 50 mg/kg in assay [1] (setting [4]) was 24%.
Still for that read-out and setting: the same measure for `CC1=C(c2ccccc2)N2CCN=C2S1` [Compound 14]: 49%; for `CC1=C(c2ccccc2)SC2=NCCN21` [Compound 15]: 53%.
On to `CC1CN2C(c3ccc(Cl)cc3)=CSC2=N1` (stereo not drawn) [Compound 16], for which the inhibition in vivo at 50 mg/kg in assay [1] (setting [4]) came to 58%; in assay [2], 16%.
With `CC1CN2C(c3ccc([N+](=O)[O-])cc3)=CSC2=N1` (stereo not drawn) [Compound 17], the inhibition in vivo at 50 mg/kg turned out to be 48% in assay [1] (setting [4]) and 60% in assay [2].
As for `CC1CN2C(c3ccc(Cl)c(Cl)c3)=CSC2=N1` (stereo not drawn) [Compound 18], in assay [1] (setting [4]), the inhibition in vivo at 50 mg/kg stood at 42%.
For `O=C(O)CC1=C(c2ccccc2)N2CCN=C2S1` [Compound 19, 3-phenyl-5,6-dihydro-4H-imidazo[2,1-b] thiazo-2-yl-acetic acid hydrobromide], the inhibition in vivo at 100 mg/kg in assay [1] (Rattus norvegicus, ip, 3 h, Table I, 100 mg/kg i.p., 1 h before carrageenin, 3 h, read-out: Reduction % (carrageenin edema)) turned out to be 24%.
Turning to `Clc1ccc(C[N+]2=C3SC=C(c4ccccc4)N3CC2)cc1Cl` [Compound 20], the inhibition in vivo at 20 mg/kg in assay [1] (Rattus norvegicus, po, 3 h, Table I, 20 mg/kg, oral, 1 h before carrageenin, 3 h, read-out: Reduction % (carrageenin edema)) amounted to 36%.
For the molecule `Brc1ccc(C2=CSC3=NCCN23)cc1` [Compound 21], in assay [1] (setting [6]), the inhibition in vivo at 40 mg/kg was 49%.
`C#CC[N+]1=C2SC=C(c3ccc(Br)cc3)N2CC1` [Compound 22]: in assay [1] (Rattus norvegicus, po, 3 h, Table I, 100 mg/kg, oral, 1 h before carrageenin, 3 h, read-out: Reduction % (carrageenin edema)), the inhibition in vivo at 100 mg/kg was 36%.
In the case of `C#CC(C)[N+]1=C2SC=C(c3ccc(Br)cc3)N2CC1` (stereo not drawn) [Compound 23], the inhibition in vivo at 40 mg/kg in assay [1] (setting [6]) came to 27%.
Consider `ClCC=CC[N+]1=C2SC=C(c3ccc(Br)cc3)N2CC1` [Compound 24], for which the inhibition in vivo at 60 mg/kg in assay [1] (Rattus norvegicus, po, 3 h, Table I, 60 mg/kg, oral, 1 h before carrageenin, 3 h, read-out: Reduction % (carrageenin edema)) turned out to be 20%.
Regarding `CC1=CSC2=NCCN12` [Compound 25], the inhibition in vivo at 150 mg/kg in assay [1] (Rattus norvegicus, po, 3 h, Table I, 150 mg/kg, oral, 1 h before carrageenin, 3 h, read-out: Reduction % (carrageenin edema)) turned out to be 44%.
Consider `C#CC[N+]1=C2SC=C(C)N2CC1` [Compound 26], for which the inhibition in vivo at 40 mg/kg in assay [1] (setting [6]) was 31%.
`C1=C(c2cc3ccccc3o2)N2CCN=C2S1` [Compound 27, 3-(2-benzofuranyl)-5,6-dihydro-4H-imidazo[2,1-b] thiazole]: in assay [1] (setting [6]), the inhibition in vivo at 40 mg/kg worked out at 40%.
With `Clc1ccc(C2=CSC3=NCCCN23)cc1` [Compound 28], the inhibition in vivo at 25 mg/kg in assay [1] (setting [5]) was 29%.
On to `CCC1=C(c2ccccc2)N2CCCN=C2S1` [Compound 29, 2-ethyl-3-phenyl-4,5,6,7-tetrahydrothiazole[3,2-a] pyrimidine hydrobromide], for which the inhibition in vivo at 50 mg/kg in assay [1] (setting [4]) was determined as 76%. Besides, in assay [2], the inhibition in vivo at 25 mg/kg stood at 18%.
For `C1=C(c2ccccc2)N2CCCN=C2S1` [Compound 30], the inhibition in vivo at 40 mg/kg in assay [1] (setting [6]) was determined as 25%.
As to `CC1=C(c2ccccc2)N2CCCN=C2S1` [Compound 31], the inhibition in vivo at 40 mg/kg in assay [1] (setting [6]) was 48%.
On to `O=[N+]([O-])c1ccc(C2=CSC3=NCCCN23)cc1` [Compound 32], for which the inhibition in vivo at 25 mg/kg in assay [1] (setting [5]) was determined as 20%.
For `CC1=C(c2ccc(Cl)cc2)N2CCCN=C2S1` [Compound 33], the inhibition in vivo at 10 mg/kg in assay [1] (Rattus norvegicus, po, 3 h, Table I, 10 mg/kg, oral, 1 h before carrageenin, 3 h, read-out: Reduction % (carrageenin edema)) stood at 22%.
For the molecule `OC1(c2ccccc2)CSC2=NCCN21` (stereo not drawn) [Compound 34], the “Reduction (%) (carrageenin edema)” value in assay [1] (Table II, 100 mg/kg, oral) amounted to 70%.
On to `CC1SC2=NCCN2C1(O)c1ccccc1` (stereo not drawn) [Compound 35], for which, in assay [1] (Table II, 150 mg/kg, oral), the “Reduction (%) (carrageenin edema)” value is reported as 68%.
As for `OC1(c2ccc(Cl)cc2)CSC2=NCCN21` (stereo not drawn) [Compound 36], the “Reduction (%) (carrageenin edema)” value in assay [1] (Table II, 25 mg/kg, oral) came out at 57%.
For the molecule `OC1(c2ccccc2)CSC2=NCCCN21` (stereo not drawn) [Compound 37], the “Reduction (%) (carrageenin edema)” value in assay [1] (Table II, 50 mg/kg, oral) worked out at 52%.
`OC1(c2ccc(Cl)cc2)CSC2=NCCCN21` (stereo not drawn) [Compound 38]: in assay [1] (Table II, 100 mg/kg, oral), the “Reduction (%) (carrageenin edema)” value worked out at 76%.
Regarding `COc1ccc(C2(O)CSC3=NCCCN32)cc1` (stereo not drawn) [Compound 39], the “Reduction (%) (carrageenin edema)” value in assay [1] (Table II, 40 mg/kg, oral) worked out at 27%.
